One series has as its system Mahlavu. Description: SRB cytotoxicity assay. Type of series: cell-based, human. The note with it: Homo sapiens, Mahlavu, 72 h, 72 h treatment. The method, boiled down:
(§1)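 Cells seeded 24 h before 72 h compound exposure, 40 to 2.5 μM (or 2.5 to 0.15 μM for compounds below 2.5 μM). TCA-fixed, stained with sulforhodamine B, absorbance at 515 nm. IC50 relative to DMSO control; fits with R^2 above 0.9 accepted.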

Another series concerns Huh7. Description: SRB cytotoxicity assay. The class given is cell-based, human. The settings on record: 72 h treatment. The method, boiled down:
as §1

For another series, the system named is MCF7. Description: SRB cytotoxicity assay. Type of series: cell-based, human. The note with it: 72 h treatment. The method, boiled down:
as §1

A further series concerns MCF10A. Description: SRB cytotoxicity assay, immortalized normal breast epithelial cells. Type of series: cell-based. The settings on record: Homo sapiens, MCF-10A, 72 h treatment, non-tumorigenic immortalized breast epithelial cells. The protocol:
HepG2, FOCUS, Hep3B, Mahlavu, Huh7, Hep40, and PLC-PRF-5 hepatocellular carcinoma cells; MCF-7, MDA-MB-231, MDA-MB-468, SKBR3, and ZR-75 breast cancer cells; and normal-like epithelial MCF-10A breast cells were cultured in low-glucose Dulbecco’s modified Eagle’s medium (DMEM) (Biological Industries-BI) supplemented with 10% fetal bovine serum (FBS) (Gibco/Thermo Fisher Scientific), 2 mM L-Glutamine (Gibco/Thermo Fisher Scientific), 100 Units/mL Penicillin/Streptomycin, and 0.1 mM non-essential amino acid (Gibco/Thermo Fisher Scientific). […]
Mahlavu, FOCUS, SNU475 (1000 cell/well in 150 μL/well); Huh7, MCF7 (2500 cell/well in 150 μL/well); HepG2, Hep3B, SKBR3 (3000 cell/well in 150 μL/well); PLC-PRF-5, Hep40 (5000 cell/well in 150 μL/well); MDA-MB-231, MDA-MB-468, MCF10A (6000 cell/well in 150 μL/well); and ZR-75 (7500 cell/well in 150 μL/well) were cultured in 96-well plates and were inoculated in an incubator for 24 hours. […] The protein-bound SRB was solubilized with 10 mM Tris-base (Sigma) and their absorbance was measured with a 96-well plate reader at 515 nm wavelength (ELx800, Biotek). The IC50 values of compounds were calculated in comparison with control group DMSO. […]

A further series relates to PARP. Description: PARP cleavage western blotting. The note with it: 5 μM, 48 h; MCF7, MDA-MB-231, Mahlavu; except for 11 treated MCF7 and Huh7 cells. Type of series: cell-based, human. The protocol: Cells were treated for 5 μM compounds 11 and 85 or control (DMSO). The treated cells were collected with a scraper at end of 48 h incubation and lysates were prepared. Protein concentration was calculated with a BCA assay. The protein levels were analyzed using protein electrophoresis according to the manufacturer’s protocol for near-infrared (NIR) Western Blot analysis (Mini-PROTEAN Tetra Cell Systems, Bio-Rad). The samples (40 μg /well) were loaded onto TGX precast gels, and protein transfer from gel to an LF-PVDF membrane was done using Trans-Blot Turbo System (Bio-Rad). Primary antibodies (PARP, CST, #9532S) and Calnexin (CST, #2679) and secondary antibodies IRDye 680RD Goat Anti Rabbit (Li-Cor, # 92668071) and IRDye- 800CW Goat Anti Rabbit (Licor, # 926e32211) were used for western blotting, and the proteins were monitored in fluorescence system using Odyssey CLx- LICOR imaging system.[32]

Series [1] deals with hepatocellular carcinoma and breast cancer cell lines. Description: SRB cytotoxicity, cell line panel. The class given is cell-based. The note with it: Homo sapiens, range over hepatocellular carcinoma and breast cancer cell lines. How it is done:
(§2) Mahlavu, FOCUS, SNU475 (1000 cell/well in 150 μL/well); Huh7, MCF7 (2500 cell/well in 150 μL/well); HepG2, Hep3B, SKBR3 (3000 cell/well in 150 μL/well); PLC-PRF-5, Hep40 (5000 cell/well in 150 μL/well); MDA-MB-231, MDA-MB-468, MCF10A (6000 cell/well in 150 μL/well); and ZR-75 (7500 cell/well in 150 μL/well) were cultured in 96-well plates and were inoculated in an incubator for 24 hours. The compounds were dissolved in dimethyl sulfoxide (DMSO) (Sigma, St Louis, MO) as a 20 mM stock solution. The treatment of cells with the compounds was done in a concentration range starting from 40 to 2.5 μM. The compounds which were below 2.5 μM were tested in a concentration range from 2.5 to 0.15 μM. End of the 72h compound treatment, the cells were fixed using 10% (v/v) trichloroacetic acid (MERCK) for an hour and washed with ddH2O, and left for air-drying. The fixed plates were stained with 50 μL of sulforhodamine B (SRB) solution (Sigma) at RT for 10 min. To remove unbound SRB dye, acetic acid was used to wash cells three times and left for drying. The protein-bound SRB was solubilized with 10 mM Tris-base (Sigma) and their absorbance was measured with a 96-well plate reader at 515 nm wavelength (ELx800, Biotek). The IC50 values of compounds were calculated in comparison with control group DMSO. Data with R^2 values larger than 0.9 are considered significant.

Another series concerns Huh7, Mahlavu and MCF7. Description: SRB cytotoxicity, summary for all three cell lines. The class given is cell-based. The note with it: Homo sapiens; one value or range for Huh7, Mahlavu and MCF7 together; read-out: IC50 against all three cell lines. How it is done:
as §2

Another series is described as follows: Mouse PK, IV and PO. The class given is in vivo. How it is done: 1000 Mean Mice PK plasma concentrations after
Figure S2. Plasma concentrations vs. time profile of 85 after single dose IV (1 mg/kg) and PO
(10 mg/kg) administrations in male CD-1 mice. The PK study was done at Syngene
International, Ltd., India. […]

[2] abbreviates: male, CD-1, plasma, 1 mg/kg, Mouse IV PK, 1 mpk.
Where [3] appears, read: male, CD-1, plasma, 10 mg/kg, Mouse PO PK, 10 mpk.

For `Cc1ccccc1COc1ccc(-c2noc(C)c2-c2ccc(Cl)cc2)cc1` [compound 11, 4-(4-Chlorophenyl)-5-methyl-3-(4-((2-methylbenzyl)oxy)phenyl)isoxazole], the half-inhibitory concentration (IC50) in the series with Mahlavu is 3.2 µM; with Huh7 (Homo sapiens, Huh-7, 72 h), 1.3 µM; in the series on MCF7 (Homo sapiens, MCF7, 72 h) it was 3.8 µM; in the series with MCF10A, 12.1 µM; in series [1], 0.7 to 9.5 µM. Besides, in the series with PARP, the PARP cleavage entry is reported as “increase in PARP cleavage”.

Consider `Cc1ccccc1COc1ccc(-c2ccnn2-c2ccc(Cl)cc2)cc1` [compound 85, 1-(4-Chlorophenyl)-5-(4-((2-methylbenzyl)oxy)phenyl)-1H-pyrazole], for which the half-maximal inhibitory concentration (IC50) was 3.7 µM with Mahlavu; 0.7 µM in the series with Huh7; less than 1 µM in the series on Huh7 (Homo sapiens, Huh-7, 72 h); 0.9 µM in the series on MCF7; less than 1 µM in the series with MCF7 (Homo sapiens, MCF7, 72 h); 7.6 µM in the series with MCF10A. The IC50 fell in the range of 0.7 to 14.4 µM with Huh7, Mahlavu and MCF7; 0.7 to 9.5 µM in series [1]. Also, in the series with PARP, the PARP cleavage result is “increase in PARP cleavage”. The compound further came in with a Co in the series “Mouse PK, IV and PO” (Mouse IV PK, 1 mpk) of 393 ng/mL. Also, the area under the curve (AUC) was determined as 436 ng·h/mL in “Mouse PK, IV and PO” (setting [2]); 192 ng·h/mL in the series “Mouse PK, IV and PO” (setting [3]). In “Mouse PK, IV and PO” (setting [2]), this compound came in with a Vd of 13.2 L/kg. The half-life in the series “Mouse PK, IV and PO” (setting [2]) was 3.85 h; in “Mouse PK, IV and PO” (setting [3]), 6.64 h. Also, the clearance in “Mouse PK, IV and PO” (male, CD-1, plasma, 1 mg/kg, Mouse IV PK, 1 mpk, read-out: Clp (converted)) is 38.8 mL/min/kg. The compound further gave a Cmax in the series “Mouse PK, IV and PO” (setting [3]) of 19.3 ng/mL. In “Mouse PK, IV and PO” (setting [3]), this compound came in with a bioavailability of 5%.

The record behind these values is publication PMC9583322, “Vicinal Diaryl-Substituted Isoxazole and Pyrazole Derivatives with In Vitro Growth Inhibitory and In Vivo Antitumor Activity” (ACS Omega, 2022).
